US12677825B2, “Composition for protecting islet transplantation” (LG CHEM, LTD., priority 2020, dated 2026)

Tests used:
Assay type in all cases: cell-based, mouse
[1] = tested on: islets from hIAPP+/− FVB/N mice; test: ATP assay of islets isolated with or without Compound 1; conditions: 20 μM Compound 1 during islet isolation, vs non-treated group; FIG. 1B
Procedure: (§1) Mouse islets were isolated from 10- to 12-week-old hIAPP^+/− and C57BL/6 mice as described previously. Briefly, 0.8 mg/mL of collagenase P (Roche, Indianapolis, IN, USA) in Hank's buffered saline solution (HBSS, Sigma-Aldrich, St. Louis, MO, USA) with or without 20 μM Compound 1 were infused into the common bile duct for mouse pancreas digestion. Islets were purified from the digested pancreas using a Ficoll (Biochrom, Berlin, Germany) gradient and washed several times with 1 xHBSS. Isolated islets were cultured while free-floating in 10 mL of RPMI 1640 (Gibco, Grand Island, NY, USA). The medium was supplemented with 10% heat-inactivated FBS (fetal bovine serum) at 37° C. and 5% CO2 incubation prior to the ex vivo and in vivo studies.
ATP content of islets was assayed by a luminometric method. The samples were mixed with 200 μL of a commercially available lyophilized ATP monitoring reagent containing firefly luciferase and luciferin (ATP Bioluminescence Assay KIT CLS II, Roche Diagnostics) at first reconstituted in an imidazole buffer (100 mM, pH 7.75). The emitted light was measured in a luminometer (LKB 1250 luminometer). The adenine nucleotide content in samples was determined after correction of the control (no islet or cell) and calculated by reference to ATP standards treated in the same manner as the samples.

[2] = tested on: islets from hIAPP+/− FVB/N mice; test: Alamar blue viability of islets isolated with or without Compound 1; conditions: 20 μM Compound 1 during islet isolation, vs non-treated group; FIG. 1A
Procedure: as §1
The viability of islets was evaluated using Alamar blue staining according to the manufacturer's protocol (Invitrogen, Grand Island, NY, USA). Briefly, islets isolated from hIAPP^+/− mice were cultured at a density of 100 islet equivalents (IE) per well in 24-well plates with RPMI 1640 containing 10% FBS and 0.625% BSA with or without Compound 1. […] The fluorescence intensity of each well was measured at 570/585 nm (excitation/emission) using a GloMax-Multi Plus Detection System (Promega, Fitchburg, WI, USA), and the values were normalized to a blank.

[3] = tested on: hIAPP+/− FVB/N mice islets; test: AO/PI staining viability during serum-deprived culture; conditions: BSA culture 72 hours, with Compound 1 vs BSA alone; FIGS. 6A, 6B
Procedure: Purified hIAPP^+/− FVB/N and C57BL/6J mouse were suspended in RPMI 1640 (Gibco, Grand Island, NY, USA) containing 100 IU/mL penicillin and 100 μg/mL streptomycin, and cultured at 37° C. in a fully humidified 5% CO2 atmosphere. Purified NHP islets were suspended in CMRL 1066 medium (Coming Life Sciences, Tewksbury, MA; catalog number 99-663-CV) containing 100 IU/mL penicillin and 100 μg/mL streptomycin, and cultured at 37° C. in a fully humidified 5% CO2 atmosphere. […]
Islet viability after isolation and culture was assessed using double fluorescence in acridine orange (0.67 […]) and propidium iodide (75 […]) (AO/PI) staining to visualize the living and dead islet cells simultaneously. Fluorescent imaging was performed with a fluorescence microscope (Nikon ECLIPSE 80i, Tokyo, Japan) and live and dead areas were quantified using NIS-Element AR 3.0 (Nikon). The islet viability (%) was calculated as living islet cells/total islet cells×100.

[4] = tested on: hIAPP oligomers in hIAPP+/− islets; test: hIAPP oligomer accumulation (A11 antibody staining) after serum-deprived culture; conditions: 72 hours serum-deprived culture, BSA+Compound 1 vs BSA group; FIG. 6F
Procedure: Purified hIAPP^+/− FVB/N and C57BL/6J mouse were suspended in RPMI 1640 (Gibco, Grand Island, NY, USA) containing 100 IU/mL penicillin and 100 μg/mL streptomycin, and cultured at 37° C. in a fully humidified 5% CO2 atmosphere. Purified NHP islets were suspended in CMRL 1066 medium (Coming Life Sciences, Tewksbury, MA; catalog number 99-663-CV) containing 100 IU/mL penicillin and 100 μg/mL streptomycin, and cultured at 37° C. in a fully humidified 5% CO2 atmosphere. During the ex vivo culture of murine islets, three experimental groups were designated for experiments using hIAPP^+/− FVB/N and C57BL/6J mice islets: medium supplemented with 10% FBS (Tissue Culture Biologicals, Los Alamitos, CA, USA; catalog number 101; FBS group), medium supplemented with 0.625% bovine serum albumin (Qbiogene, Carlsbad, CA, USA; catalog number BSA003; BSA group), and medium supplemented with 0, 0.1, 1, 10 and 20 μM Compoun 1 plus 0.625% BSA (BSA+Compound 1 group). […]
Accumulation of hIAPP oligomers was evaluated using sections of hIAPP^+/− mice islets stained with A11 Ab (anti-oligomer antibody, Invitrogen) and insulin antibody (Dako). […] To quantify accumulation of hIAPP oligomers per islet, the proportion of A11-stained cells among total DAPI+islet cells was determined using confocal microscopy.

SMILES: O=S1(=O)CCN(Cc2cc(NC3CCOCC3)c3[nH]c(-c4ccccc4)cc3c2)CC1 [Compound 1]
- levels of ATP [1]: significantly elevated
- relative ex vivo cell viability assessed by Alamar blue assay [2]: significantly increased
- cell viability assessed by AO/PI staining [3]: significantly improved
- proportion of accumulation of hIAPP oligomers [4]: significantly decreased
